Source: US10675300B2, “Group 3 metal compounds and use thereof in the treatment of solid tumors” (UNIVERSITÀ DEGLI STUDI DI SALERNO, priority 2016, dated 2020)

Tested on: DU145 (prostate cancer) and MDA.MB213 (Triple Negative breast cancer) cells
Experiment: MTT cell growth inhibition assay on human tumor cell lines
Type: cell-based
Conditions: 48 hours exposition; for IC50: read-out: DL50 (lethal dose 50, dose at which there is 50% of cell growth inhibition)
Text: (§1) FIG. 1 the evaluation of the inhibitory activity of CAM2 (a), CAM3 (b) and CAM4 (c) on the cell growth of DU145 cells in presence of different concentrations, determined by MTT assay. The cell viability was expressed as percentage of proliferated cells with respect to the cells treated with the different compounds and the same cells used as control and
as §1, with “2” for “1”, “MDA.MB231” for “DU145”, “control.” for “control and”
MDA.MB213—Human cell line of breast cancer acquired by ATCC (American Tissue Cell Colture—ATCC® HTB-26™), triple negative for ER receptor
DU145—Human cell line of prostate cancer acquired by ATCC (American Tissue Cell Colture—ATCC® HTB-81™)
MTT Cell Proliferation Assay Kit—Purchased by TREVIGEN—Catalog #4890-025-K
The compound was dissolved in a solution of DMSO concentrated at 100%, therefrom the dilutions programmed according to the scheme shown in figure A and B are obtained and in 96-multiwell plates 2×10^4 cells are deposited (plated).
After 24 hours the compounds under study in contact with the cells at the pre-established concentrations are used, in order to determine the lethal dose 50, that is the dose thereat there is 50% of cell growth inhibition.
After 48 hours of exposition to our compound, the growth inhibition effect is determined by means of a colorimetric assay.
The MTT assay is a measurement of sensitivity of cell proliferation based upon the decrease in the salt of tetrazolium, 3, [4,5-dimethyithiazol-2-]-2,5-diphenyl-bromide-tetrazolium (MTT).
(§2) Changes in the cell proliferative activity caused by our compounds can be quantified with MTT. MTT is reduced to an insoluble colouring agent, by the mitochondrial enzymes associated to the metabolic activity. MTT reduction is mainly due to the glycolytic activity inside the cell associated to the presence of NADH and NADPH.
The compound was dissolved in a solution of DMSO concentrated at 100%, therefrom the dilutions programmed according to the scheme shown in figure A and B are obtained, and in 96-multiwell plates 2×10^4 cells are deposited (plated).
After 24 hours the compounds under study in contact with the cells at pre-established concentrations are used, in order to determine the lethal dose 50, that is the dose thereat there is 50% of cell growth inhibition.
as §2, with “The MTT assay is a measurement of cell proliferation sensitivity based upon the reduction in the salt of tetrazolium, 3, [4,5-dimethylthiazol-2-]-2,5-diphenyl bromide-tetrazolium (MTT). Changes” for “Changes”
The compound was dissolved in a solution of DMSO concentrated at 100%, therefrom the dilutions programmed according to the scheme shown in A e B are obtained, in 96-multiwell plates 2×10^4 cells are deposited (plated).
as §2, with “MTT assay is a measurement of the cell proliferation sensitivity based upon the reduction in the salt of tetrazolium, 3, [4,5-dimethylthiazol-2-]-2,5-diphenyl bromide-tetrazolium (MTT). Changes” for “Changes”

[1] = cell line not specified (DU145 / MDA.MB213)
[2] = 5 μM, cell line not specified (DU145 / MDA.MB213)

Row | Substance | growth inhibition (10 μM (higher concentrations), cell line not specified) [%] | DL50 (lethal dose 50, dose at which there is 50% of cell growth inhibition) [1] | growth inhibition (lower concentrations (not specified), cell line not specified) [%] | growth inhibition [2] [%] | growth inhibition (20 μM, cell line not specified (DU145 / MDA.MB213)) [%] | IC50 [1] [µM] | growth inhibition (40 μM (higher concentrations), cell line not specified) [%]
1 | [Cp-CH2—C6H5—OCH3)]ScCl2 [CAM3] | 95 | 5/10 | 40 | – | – | – | –
2 | [Cp-CH2—C6H5—OCH3]2YCl [CAM2] | – | – | – | 58 | 95 | < 5 | –
3 | [Cp-CH2—C6H5—OCH3]2ScCl [CAM4] | – | – | – | 14 | – | 20 | 88
